According to ChEMBL document CHEMBL1132508, “N,N-dialkyl-dipeptidylamines as novel N-type calcium channel blockers” (Bioorg Med Chem Lett, 1999):
Square brackets hold non-standard residues; d marks the D form. Peptide text beside a SMILES is read from it. * marks the point of attachment. NMeL = CN[C@@H](CC(C)C)C(=O)O; Bz = O=C(c1ccccc1)*; NHtBu = CC(C)(C)N*

Key:
[1] = target: Voltage-dependent N-type calcium channel subunit alpha-1B (Homo sapiens, UniProt Q00975); assay: In vitro inhibitory activity against N-type calcium channel in the IMR-32 human neuroblastoma cells; assay type: cell-based
[2] = tested on: Mus musculus; assay: Ability to prevent the audiogenic seizure (tonic seizure phase) in DBA/2 mice (N = 5 mice/ dose tested) tested in vivo at a concentration of 10 mg/kg; assay type: functional
[3] = tested on: Mus musculus; assay: Ability to prevent the audiogenic seizure (tonic seizure phase) in DBA/2 mice (N = 5 mice/ dose tested) tested in vivo at a concentration of 3 mg/kg; assay type: functional
[4] = tested on: Mus musculus; assay: Ability to prevent the audiogenic seizure (tonic seizure phase) in DBA/2 mice (N = 5 mice/ dose tested) tested in vivo at a concentration of 100 mg/kg; assay type: functional

Voltage-dependent N-type calcium channel subunit alpha-1B, sequence (Q00975 whole entry): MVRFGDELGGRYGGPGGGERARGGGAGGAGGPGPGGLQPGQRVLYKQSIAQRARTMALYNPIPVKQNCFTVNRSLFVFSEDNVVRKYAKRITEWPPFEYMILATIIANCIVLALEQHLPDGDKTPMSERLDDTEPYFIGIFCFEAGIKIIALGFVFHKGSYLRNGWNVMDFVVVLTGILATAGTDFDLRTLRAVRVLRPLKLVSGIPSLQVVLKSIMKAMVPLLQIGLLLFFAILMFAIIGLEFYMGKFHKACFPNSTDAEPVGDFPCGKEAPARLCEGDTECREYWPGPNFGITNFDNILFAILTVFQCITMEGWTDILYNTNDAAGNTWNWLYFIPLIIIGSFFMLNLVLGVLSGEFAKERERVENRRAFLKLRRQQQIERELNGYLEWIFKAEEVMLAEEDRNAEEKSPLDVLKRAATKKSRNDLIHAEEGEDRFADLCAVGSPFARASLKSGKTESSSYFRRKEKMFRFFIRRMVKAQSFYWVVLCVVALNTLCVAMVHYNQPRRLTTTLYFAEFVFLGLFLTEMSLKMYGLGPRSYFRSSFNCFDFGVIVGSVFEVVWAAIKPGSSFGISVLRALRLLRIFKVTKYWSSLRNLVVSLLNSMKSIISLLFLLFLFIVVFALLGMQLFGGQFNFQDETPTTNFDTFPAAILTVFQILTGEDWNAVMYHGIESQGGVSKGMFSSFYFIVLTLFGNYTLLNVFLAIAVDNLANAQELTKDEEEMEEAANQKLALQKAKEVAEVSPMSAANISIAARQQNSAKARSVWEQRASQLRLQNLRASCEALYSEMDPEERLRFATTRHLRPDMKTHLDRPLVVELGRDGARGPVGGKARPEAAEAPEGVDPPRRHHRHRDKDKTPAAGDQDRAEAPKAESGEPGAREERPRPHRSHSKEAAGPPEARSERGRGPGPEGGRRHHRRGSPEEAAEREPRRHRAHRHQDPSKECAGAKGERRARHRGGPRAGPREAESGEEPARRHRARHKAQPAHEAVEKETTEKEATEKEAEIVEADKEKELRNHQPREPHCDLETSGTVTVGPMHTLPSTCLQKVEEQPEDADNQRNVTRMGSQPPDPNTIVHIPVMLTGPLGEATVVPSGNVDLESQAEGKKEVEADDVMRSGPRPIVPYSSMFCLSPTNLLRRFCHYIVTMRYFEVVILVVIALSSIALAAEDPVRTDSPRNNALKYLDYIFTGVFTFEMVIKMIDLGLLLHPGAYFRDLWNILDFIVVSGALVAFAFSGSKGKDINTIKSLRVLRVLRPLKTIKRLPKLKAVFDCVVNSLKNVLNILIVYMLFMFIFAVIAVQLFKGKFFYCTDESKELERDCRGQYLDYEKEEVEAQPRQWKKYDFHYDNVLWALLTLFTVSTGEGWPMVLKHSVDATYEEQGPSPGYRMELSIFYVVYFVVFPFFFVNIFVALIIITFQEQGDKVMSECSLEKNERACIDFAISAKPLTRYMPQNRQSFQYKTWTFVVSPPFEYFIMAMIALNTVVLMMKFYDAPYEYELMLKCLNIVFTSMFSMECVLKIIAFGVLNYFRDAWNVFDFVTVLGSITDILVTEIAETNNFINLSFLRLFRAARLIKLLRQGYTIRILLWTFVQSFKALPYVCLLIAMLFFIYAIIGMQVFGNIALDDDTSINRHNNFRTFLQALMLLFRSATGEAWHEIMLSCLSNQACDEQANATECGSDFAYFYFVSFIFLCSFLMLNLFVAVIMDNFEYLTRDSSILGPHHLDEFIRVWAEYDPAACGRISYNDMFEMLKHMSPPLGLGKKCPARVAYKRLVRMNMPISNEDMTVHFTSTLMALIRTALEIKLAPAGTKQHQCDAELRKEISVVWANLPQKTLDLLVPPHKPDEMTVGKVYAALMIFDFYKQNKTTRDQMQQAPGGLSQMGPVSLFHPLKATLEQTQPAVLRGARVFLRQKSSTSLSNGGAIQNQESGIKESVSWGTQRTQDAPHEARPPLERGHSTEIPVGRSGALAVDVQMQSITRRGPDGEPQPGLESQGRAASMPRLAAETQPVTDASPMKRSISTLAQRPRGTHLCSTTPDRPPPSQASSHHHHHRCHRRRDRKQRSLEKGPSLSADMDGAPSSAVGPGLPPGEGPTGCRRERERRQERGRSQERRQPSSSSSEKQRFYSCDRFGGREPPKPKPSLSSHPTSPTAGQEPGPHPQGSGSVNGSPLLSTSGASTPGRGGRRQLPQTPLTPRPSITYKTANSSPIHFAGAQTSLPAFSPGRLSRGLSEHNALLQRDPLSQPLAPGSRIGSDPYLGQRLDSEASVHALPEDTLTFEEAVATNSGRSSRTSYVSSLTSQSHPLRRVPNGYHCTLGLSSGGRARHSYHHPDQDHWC

IC50 [1] [nM]	Structure (SMILES)	other results
320	CC(C)C[C@H](NC(=O)N1CCCCCC1)C(=O)N[C@@H](Cc1ccc(OC(=O)c2ccccc2)cc1)C(=O)OC(C)(C)C	
400	CC(C)C[C@@H](C(=O)N[C@@H](Cc1ccc(OC(=O)c2ccccc2)cc1)C(=O)NC(C)(C)C)N(C)CCC(C)(C)C	
4400	CCOC(=O)CN(C)[C@@H](CC(C)C)C(=O)N[C@@H](Cc1ccc(OC(=O)c2ccccc2)cc1)C(=O)NC(C)(C)C	
1400	CC(C)C[C@@H](C(=O)N[C@@H](Cc1ccc(OC(=O)c2ccccc2)cc1)C(=O)NC(C)(C)C)N1CCCCC1	
6400	CC(C)C[C@@H](C(=O)N[C@@H](Cc1ccc(OC(=O)c2ccccc2)cc1)C(=O)NC(C)(C)C)N1CCOCC1	
2200	CC(C)C[C@@H](C(=O)N[C@@H](Cc1ccc(OC(=O)c2ccccc2)cc1)C(=O)NC(C)(C)C)N(C)CCC(C)O (some centres undefined)	Protection [2]: 40%
3100	CC(C)C[C@@H](C(=O)N[C@@H](Cc1ccc(OC(=O)c2ccccc2)cc1)C(=O)NC(C)(C)C)N(C)C1CCOCC1	
280	CCCCN(C)[C@@H](CC(C)C)C(=O)N[C@@H](Cc1ccc(OC(=O)c2ccccc2)cc1)C(=O)NC(C)(C)C	
320	CC(C)CCN(C)[C@@H](CC(C)C)C(=O)N[C@@H](Cc1ccc(OC(=O)c2ccccc2)cc1)C(=O)NC(C)(C)C	Protection [3]: 20%; Protection [2]: 80%
590	CC(C)C[C@H](NC(=O)N1CCCCCC1)C(=O)N[C@@H](Cc1ccc(OC(=O)c2ccccc2)cc1)C(=O)NC(C)(C)C	
1500	CCC(C)N(C)[C@@H](CC(C)C)C(=O)N[C@@H](Cc1ccc(OC(=O)c2ccccc2)cc1)C(=O)NC(C)(C)C (some centres undefined)	
2800	CC(C)C[C@@H](C(=O)N[C@@H](Cc1ccc(OC(=O)c2ccccc2)cc1)C(=O)NC(C)(C)C)N(C)C(C)C	
2300	CC(C)C[C@@H](C(=O)N[C@@H](Cc1ccc(OC(=O)c2ccccc2)cc1)C(=O)NC(C)(C)C)N(C)C	
380	CC(C)C[C@@H](C(=O)N[C@@H](Cc1ccc(OC(=O)c2ccccc2)cc1)C(=O)NC(C)(C)C)N(C)CC(C)C	
700	CC(C)C[C@@H](C(=O)N[C@@H](Cc1ccc(OC(=O)c2ccccc2)cc1)C(=O)NC(C)(C)C)N(C)CC1CCCCC1	Protection [2]: 20%
200	CC(C)C[C@@H](C(=O)N[C@@H](Cc1ccc(OC(=O)c2ccccc2)cc1)C(=O)NC(C)(C)C)N(C)C1CCCCC1	Protection [3]: 20%; Protection [4]: 100%
3800	CC(C)C[C@H](N)C(=O)N[C@@H](Cc1ccc(OC(=O)c2ccccc2)cc1)C(=O)NC(C)(C)C (H-Leu-Tyr(Bz)-NHtBu)	
2300	CN[C@@H](CC(C)C)C(=O)N[C@@H](Cc1ccc(OC(=O)c2ccccc2)cc1)C(=O)NC(C)(C)C (H-[NMeL]-Tyr(Bz)-NHtBu)	
